Assay in all cases: relative viability (nuclei count vs DMSO), 5 days (fraction); higher = more cells survive
Compound in experiment [1]: CCn1c(-c2nonc2N)nc2c(C#CC(C)(C)O)ncc(OC[C@H]3CCCNC3)c21 + CS(=O)(=O)N1CCN(Cc2cc3nc(-c4cccc5[nH]ncc45)nc(N4CCOCC4)c3s2)CC1 [Pictilisib] (partner 1 µM)
In short, it runs like this: (§1)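 Relative viability divides the nuclei count in treated wells by that in vehicle wells. Lung cancer cell lines were seeded in 1536-well plates, dosed by pin tool the next day, and fixed and stained after 5 days in one step with final 0.05% Triton X-100, 1% formaldehyde and 1 ug/ml Hoechst. Dosing was a single drug or a fixed anchor-drug dose plus five library-drug doses (not always all listed) in √10 steps, and values are medians of duplicate plates imaged at 4×.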

Compound in experiment [2]: CCn1c(-c2nonc2N)nc2c(C#CC(C)(C)O)ncc(OC[C@H]3CCCNC3)c21 + O=C(CCCCCCC(=O)Nc1ccccc1)NO [Vorinostat] (partner 1 µM)
The procedure, abridged: as §1

Compound in experiment [3]: CCn1c(-c2nonc2N)nc2c(C#CC(C)(C)O)ncc(OC[C@H]3CCCNC3)c21 + CC(=O)Nc1cccc(-n2c(=O)n(C3CC3)c(=O)c3c(Nc4ccc(I)cc4F)n(C)c(=O)c(C)c32)c1 [Trametinib] (partner 0.02 µM)
In short, it runs like this:
as §1

Compound in experiment [4]: CCOC1=CC=CC=C1N=NC2=C(NN(C2=O)C3=NC(=CS3)C4=CC=CC=C4)C [BAM7] + N=C(N)NC(=N)NCCc1ccccc1 [Phenformin] (partner 250 µM)
The procedure, abridged: as §1

As to NCI-H2085, the relative viability in experiment [1] (first compound 0.01 µM) is 0.436; in experiment [1] (first compound 0.03162 µM), 0.437; in experiment [1] (first compound 0.1 µM), 0.373; in experiment [1] (first compound 0.3162 µM) it was 0.404; in experiment [1] (first compound 1 µM), 0.462; in experiment [2] (first compound 0.01 µM), 0.822. The relative viability came to 0.785 in experiment [2] (first compound 0.03162 µM); 0.785 in experiment [2] (first compound 0.1 µM); 0.712 in experiment [2] (first compound 0.3162 µM); 0.796 in experiment [2] (first compound 1 µM); 0.452 in experiment [3] (first compound 0.01 µM); 0.539 in experiment [3] (first compound 0.03162 µM). Further, the relative viability was 0.439 in experiment [3] (first compound 0.1 µM); 0.427 in experiment [3] (first compound 0.3162 µM); 0.59 in experiment [3] (first compound 1 µM); 0.691 in experiment [4] (first compound 0.5 µM); 0.619 in experiment [4] (first compound 5 µM); 0.625 in experiment [4] (first compound 15.81 µM). Further, the relative viability in experiment [4] (first compound 50 µM) was 0.711.

In the case of NCI-H2087, the relative viability in experiment [1] (first compound 0.01 µM) worked out at 0.823; in experiment [1] (first compound 0.03162 µM) it was 0.843; in experiment [1] (first compound 0.1 µM) it was 0.805; in experiment [1] (first compound 0.3162 µM), 0.891; in experiment [1] (first compound 1 µM), 0.894; in experiment [2] (first compound 0.01 µM) it was 0.971. The relative viability was 0.706 in experiment [2] (first compound 0.1 µM); 0.517 in experiment [2] (first compound 0.3162 µM); 0.96 in experiment [2] (first compound 1 µM); 0.23 in experiment [3] (first compound 0.01 µM); 0.175 in experiment [3] (first compound 0.1 µM); 0.223 in experiment [3] (first compound 0.3162 µM). The relative viability in experiment [3] (first compound 1 µM) came to 0.174; in experiment [4] (first compound 0.5 µM) it was 0.464; in experiment [4] (first compound 5 µM) it was 0.473; in experiment [4] (first compound 15.81 µM), 0.43; in experiment [4] (first compound 50 µM), 0.49.

NCI-H2126: the relative viability was 0.548 in experiment [1] (first compound 0.01 µM); 0.496 in experiment [1] (first compound 0.03162 µM); 0.494 in experiment [1] (first compound 0.1 µM); 0.442 in experiment [1] (first compound 0.3162 µM); 0.449 in experiment [1] (first compound 1 µM); 0.754 in experiment [2] (first compound 0.01 µM). Also, the relative viability in experiment [2] (first compound 0.03162 µM) was found to be 0.743; in experiment [2] (first compound 0.1 µM), 0.791; in experiment [2] (first compound 0.3162 µM), 0.741; in experiment [2] (first compound 1 µM), 0.792; in experiment [3] (first compound 0.01 µM), 0.568; in experiment [3] (first compound 0.03162 µM), 0.566. The relative viability in experiment [3] (first compound 0.1 µM) worked out at 0.65; in experiment [3] (first compound 0.3162 µM), 0.578; in experiment [3] (first compound 1 µM) it was 0.61; in experiment [4] (first compound 0.5 µM) it was 0.494; in experiment [4] (first compound 5 µM) it was 0.54; in experiment [4] (first compound 15.81 µM), 0.473. In experiment [4] (first compound 50 µM), the relative viability stood at 0.556.

With NCI-H2170, the relative viability worked out at 0.301 in experiment [1] (first compound 0.01 µM); 0.296 in experiment [1] (first compound 0.03162 µM); 0.342 in experiment [1] (first compound 0.1 µM); 0.312 in experiment [1] (first compound 0.3162 µM); 0.281 in experiment [1] (first compound 1 µM); 0.841 in experiment [2] (first compound 0.01 µM). The relative viability was determined as 0.764 in experiment [2] (first compound 0.03162 µM); 0.836 in experiment [2] (first compound 0.1 µM); 0.699 in experiment [2] (first compound 0.3162 µM); 0.85 in experiment [2] (first compound 1 µM); 0.957 in experiment [3] (first compound 0.01 µM); 0.982 in experiment [3] (first compound 0.03162 µM). For the same cell line, the relative viability in experiment [3] (first compound 0.1 µM) was 0.9; in experiment [3] (first compound 0.3162 µM) it was 0.865; in experiment [3] (first compound 1 µM) it was 1.11; in experiment [4] (first compound 0.5 µM) it was 0.385; in experiment [4] (first compound 5 µM) it was 0.362; in experiment [4] (first compound 15.81 µM) it was 0.388. Also, the relative viability in experiment [4] (first compound 50 µM) was determined as 0.371.
